Data reported in patent US10905646B2, “Thermoplastic polyurethane film for delivery of active agents to skin surfaces” (Lubrizol Advanced Materials, Inc., priority 2014, dated 2021).
Where “and” joins values, the source holds several entries; their conditions need not be identical. Identical values can stand only once.

Columns and labels:
[1] = Concentration of active in wet polymer K after soaking, by HPLC; format: physicochemical; conditions: replicate samples
Method: The sample is placed in approximately 5 mL of soaking solution (TABLE 17) and suspended for 30 minutes in the solution. The sample is periodically checked to ensure it remains totally immersed in the solution. At the end of soaking time, the sample is removed and reweighed (final sample diameter, about 2.1 cm). The concentration of caffeine in the wet polymer sample is measured by HPLC and is shown in TABLE 18 (HPLC: Shimadzu Scientific Prominence System; Column: […].: 250×4.6 mm; Carrier Phase: A: Water, B: Methanol (65:35 v/v); Oven Temperature: Room Temperature (approx. 22° C.); Flow Rate: 1 mL/min.; UV detection: 254 nm). […] At the conclusion of the 30 min. soaking period the sample is removed from the dimethylmethoxy chromanyl palmitate solution and re-weighed (TABLE 20). The final sample diameter is about 2.0 cm. […] At the conclusion of the 30 min. soaking period the sample is removed from the arbutin solution and re-weighed. The final sample diameter is about 2.2 cm. […] (TABLE 23) and suspended for 90 minutes in the solution. […] At the conclusion of the 90 min. soaking period the sample is removed from the acetyl hexapeptide-37 solution and re-weighed. The final sample diameter is about 2.2 cm. […] (TABLE 25) and suspended for 90 minutes in the acetyl hexapeptide-8 solution. […] At the end of the 90 minute soaking time, the square is removed and weighed again (final piece diameter: 2.2 cm). The same study is performed with a lower concentration of peptide, as follows. […] At the end of the soaking time, the square is removed from the low concentration acetyl hexapeptide-8 solution and weighed again (final piece diameter: 2.2 cm).

[2] = Percutaneous absorption study on pig skin, Franz diffusion cell; format: in vitro ADME, domestic pigs (Sus domesticus); conditions: Franz cell receptor fluid (PBS), HPLC
Method: A percutaneous absorption study is performed on pig skin test samples obtained from the back of domestic pigs (Sus domesticus) weighing about 30 kg. The pig skin is dermatomed to a thickness of about 500 microns and then test discs having a diameter of 2.5 cm are sectioned from the dermatomed skin. […] The loaded films are applied to the sample discs (in contact with the stratum corneum) for 30 minutes. Different layers of the film treated skin (stratum corneum, epidermis and dermis) are separated, assayed and analyzed for the quantity of caffeine and permeation into the respective layers of the skin. The quantitative analysis for caffeine and is conducted by HPLC utilizing the instrumentation identified above.
Additionally, the same solutions utilized to load the polymer films are topically applied across the entire surface of the stratum corneum of comparative pig skin disc samples prepared as above. […]
The lower chamber contained the receptor fluid (PBS solution, Sigma-Aldrich Co. LLC). The integrity of the skin is evaluated by measuring the transepidermal water loss (TEWL). […] The collected receptor fluid is analyzed by HPLC as described above.
The quantities of caffeine that permeated into each of the three different layers of the skin samples (stratum corneum, epidermis and dermis) are collected separately as follows. […]

Q: Which “% Arbutin (w/w), vs. wet polymer” value ([1]; film of polymer K soaked 30 minutes in soaking solution with 4 % arbutin, pH 5.5) does the source give for `OC[C@H]1O[C@@H](Oc2ccc(O)cc2)[C@H](O)[C@@H](O)[C@@H]1O` [Arbutin, (2R,3S,4S,5R,6S)-2Hydroxymethyl-6(4hydroxyphenoxy)oxane-3,4,5triol] here?
A: 1.42 % (w/w) and 1.61 % (w/w) (2×) and 1.45 % (w/w) and 1.78 % (w/w)

Q: For `Cn1c(=O)c2c(ncn2C)n(C)c1=O` [caffeine], which “% caffeine (w/w), vs. wet polymer” value ([1]; film of polymer K soaked 30 min in soaking solution with 2 % caffeine, pH 4) is on record?
A: 2.60 % (w/w) and 2.57 % (w/w) and 2.59 % (w/w) and 2.64 % (w/w) and 2.63 % (w/w) (2×)

Q: What about the “Caffeine in the collected receptor fluid” value [2] of the same compound?
A: No caffeine was present

Q: For `CCCCCCCCCCCCCCCC(=O)Oc1cc2c(cc1OC)OC(C)(C)CC2` [dimethylmethoxy chromanyl palmitate], which “% Dimethylmethoxy chromanyl palmitate (w/w), vs. wet polymer” value ([1]; film of Polymer K soaked 30 minutes in liposome soaking solution with 2 % dimethylmethoxy chromanyl palmitate) is on record?
A: 1.074 % (w/w) and 0.964 % (w/w) and 1.009 % (w/w) and 0.994 % (w/w) and 0.888 % (w/w)

Q: Which “% Acetyl Hexapeptide-8 (w/w), vs. wet polymer” value ([1]; polymer K soaked 90 minutes in a 1/5000 dilution with water of the 0.05 % soaking solution) does the source give for Acetyl Hexapeptide-8 here?
A: 0.0017 % (w/w) and 0.0019 % (w/w)

Q: What about the “% Acetyl Hexapeptide-8 (w/w), vs. wet polymer” value ([1]; polymer K soaked 90 minutes in soaking solution with 0.05 % acetyl hexapeptide-8) of the same compound?
A: 0.0425 % (w/w) and 0.0420 % (w/w) and 0.0418 % (w/w) and 0.0434 % (w/w)
